Data published in patent publication US20170233637A1, “METHODS FOR INHIBITING METAL CORROSION” (OHIO UNIVERSITY, priority 2014, published 2017).
≈ marks a conversion by molar mass, not a printed value. Where “and” joins values, the source holds several entries; their conditions need not be identical. Identical values can stand only once. Like-named read-outs stand apart in the source and are kept apart here.

How the values were obtained:
[1] = VCI screening in bulk solution (BLC rate by linear polarization resistance, OCP, solution pH); settings: for inhibition properties in the tested water phase (VCI screening in bulk solution): 400 ppmv, 1 wt % NaCl
Protocol: Other measurements of the effectiveness of the VCI composition to inhibit corrosion may be derived from Open Circuit Potential (OCP) and Linear Polarization Resistance (Rp) experiments. In the volatile thiol screening test, a potentiostat was used to measure the Rp and the OCP of the ferrous metal sample. Corrosion rate in the water phase (BLC rate) is proportional to the corrosion current density (icorr), which was then calculated by using a B constant value of 0.026 V/decade (icorr=B/Rp/S in which S is surface area of the sample).
A three electrode system was used in which an X65 rotating cylinder electrode (1000 RPM) was the working electrode 12, a Pt wire was used as counter electrode 14, and Ag/AgCl as the reference electrode 16. A pH probe 18 was used to measure the pH of the solution before and after adding the VCI candidates. The experiments were performed at 25° C. and 1 bar total pressure (pCO2=0.96 bar).
In the VCI screening test, a potentiostat was used to measure the polarization resistance (Rp) of the X65 sample. Corrosion rate in the water phase (BLC rate) is proportional to the corrosion current density (icorr) which was then calculated by using a B constant value of 0.026 V/decade (icorr=B/Rp/S in which S is surface area of the sample).
A baseline test was performed in the absence of the VCI candidate compound. […] Dibutyl sulfide was used to compare the sulfide functional group versus the thiol functional group.
For the VCI screening tests, a 1 wt % NaCl solution was prepared and purged with CO2 for 2 hours at 25° C. before injecting the VCI candidate. […] After that the Open Circuit Potential (OCP) and Linear Polarization Resistance (LPR) were measured every 10 minutes during an exposure time of 3-4 hours. The pH of the solution was measured before and after adding the VCI candidate. Electrolyte resistance (ER) was measured by Electrochemical Impedance Spectroscopy (EIS).

[2] = Efficacy test of VCI candidates for top of the line corrosion (weight loss, ASTM G1; surface analysis); settings: for TLC rate / TLC rate (weight loss): uninhibited 1.06 mm/y; for surface of the X65 TLC specimen: 100 and 400 ppmv in the bulk, after 2 days; for TLC rate (weight loss): 2 days
Protocol: The temperatures of the bottom solution and gas phases were controlled by a heater, while temperature of the specimen at the top was controlled by cooling water. Through coil 20, a condenser 22 was used to prevent water and VCI vapor loss.
In the VCI efficacy test, corrosion rate of the specimen at the top (TLC rate) was measured by weight loss following the ASTM G1 standard. Sample surface was characterized by Scanning Electron Microscopy (SEM)/Energy Dispersive X-ray Spectroscopy (EDS).
1-hexanethiol, 1-decanethiol and 1-dodecanethiol were chosen based on the results in the VCI screening test, data from which will be shown below. In addition, the effect of acetic acid and MEG on the inhibition performance of the best VCI candidate was also taken into account.
For the efficacy tests of VCI candidates for TLC, 1 wt % NaCl was also prepared and purged with CO2 for 2 hours. In order to have a gas temperature of 65° C., the bottom solution was heated to 77° C. After that the selected concentration of the VCI candidates (Table 3) was added into the bulk solution. A weight loss specimen 24, after being ground (with up to 600 grit abrasive paper), was flush-mounted at the top of the experimental setup, controlling its temperature at 32° C. using cooling water. The weight loss sample and ER probe were added 0.1 hour after addition of the VCI candidate. The weight loss samples were withdrawn after 48 hours for surface analysis and weight loss measurement.
FIG. 15 indicates the conditions for the TLC tests. The temperatures at the bottom, in the vapor phase, and at the top were 77° C., 65° C., and 32° C. respectively. The experiment was performed in the CO2 environment (total pressure=1 atm).

[3] = cited from earlier work; for Solubility: at 77° C.; for Water solubility: temperature not given
[4] = cited from earlier work; for Pvapor (vapor pressure): at 25° C.; for Calculated vapor pressure: at 200° C., Yaws and Yang 1989
[5] = Solubility in water of VCI candidates; settings: at 25° C.; converted to ppm by volume using density value
[6] = carbon dioxide saturated environment; cited from earlier work
[7] = 400 ppmv VCI added before electrode insertion, CO2 saturated 1 wt % NaCl, 25° C., baseline 2.3 mm/y
[8] = at 25° C., data from www.lookchem.com

Row | SMILES | inhibition properties in the tested water phase (VCI screening in bulk solution) [1] | Solubility limit [3, 8] | Solubility [3] | Water solubility [3] | Pvapor (vapor pressure) [4] | Calculated vapor pressure [4] | also measured
1 | CCCCCCCCCCS [1-decanethiol] | had inhibition properties | 2.14 mg/L (≈ 12.3 µM) | 24.8 ppmV | ~2.14 µg/mL | 0.06 mmHg |  | BLC rate [1, 7]: 0.01 mm/y; BLC rate ([1]; 400 ppmv injected after electrode insertion (X65 pre-corroded almost one hour), decreased from 2.4 mm/y): 0.05 mm/y; TLC rate ([2]; 1 ppmv at the bottom): 0.21 mm/y; TLC rate ([2]; 10 ppmv at the bottom): 0.12 mm/y; surface of the X65 TLC specimen [2]: fully protected; protection of the X65 specimen in the presence of acetic acid ([2]; 100 ppmv VCI with 500 ppmv acetic acid): effective in fully protecting; TLC rate (weight loss) ([2]; 400 ppmV at the bottom): 0.02 mm/y; weight loss for the calculation of corrosion rate ([2]; above the solubility limit (100 ppmv and 400 ppmv)): no measurable weight loss; average vapor phase corrosion rate ([2]; with or without 50 wt. % MEG, 400 ppmV per test matrix): around 0.04 mm/y; Solubility limit ([3]; at 32° C.): 3.63 ppmv
2 | CCCCCCCCCCCCS [1-dodecanethiol] | had inhibition properties | 0.18 mg/L (≈ 0.889 µM) | 3 ppmV | ~0.225 µg/mL | 0.007 mmHg |  | TLC rate (weight loss) ([2]; 400 ppmV at the bottom): 0.02 mm/y; Solubility [5]: 0.22 ppmV
3 | CCCCCCS [1-hexanethiol] | had inhibition properties | 177.1 mg/L (≈ 1500 µM) | 1013.0 ppmV | about 177.1 mg/L | 4.5 mmHg |  | BLC rate [1, 7]: 0.01 mm/y; surface of the X65 TLC specimen [2]: partially protected; TLC rate (weight loss) ([2]; 100 ppmV at the bottom): 0.11 mm/y; TLC rate, times lower than the baseline test ([2]; 100 ppmv and 400 ppmv in the bulk): 10 times; TLC rate (weight loss) ([2]; 400 ppmV at the bottom): 0.13 mm/y; localized corrosion rate ([2]; 400 ppmv in the bulk, profilometry after removing corrosion product, 2 day experiment): 1.46 mm/y; depth of the deepest pit on the surface ([2]; 400 ppmv in the bulk, profilometry, 2 day experiment): about 8 micrometers; Solubility [5]: 212.35 ppmV and 212.4 ppmV
4 | O=C(O)CCCCCCCCCCS [11-MUA, 11-mercaptoundecanoic acid] |  |  | 89 ppmV | about 13.8 mg/L | 3.7 × 10^−5 mmHg |  | TLC rate (weight loss) ([2]; 100 ppmV at the bottom): 0.02 mm/y
5 | OCCCCCCCCCCCS [11-Mercapto-1-undecanol] |  |  |  | about 10.3 mg/L |  |  | 
6 | CCCCCCCCCCCCCCCS [C15] |  |  |  |  |  | 26.5 mmHg | 
7 | CCCCCCCCCCCCCCCCS [C16] |  |  |  |  |  | 16.7 mmHg | 
8 | CCCCCCCCCCCCCCCCCS [C17] |  |  |  |  |  | 10.7 mmHg | 
9 | CCCCCCCCCCCCCCCCCCS [C18] |  |  |  |  |  | 6.79 mmHg | 
10 | CCCCSCCCC [Dibutyl sulfide, reference compound] | did not | 39.4 mg/L (≈ 269 µM) |  |  |  |  | BLC rate [1, 7]: did not significantly change
11 | O=C(O)CS [Thioglycolic acid] |  |  |  |  |  |  | effectiveness at inhibiting corrosion [6]: only partially effective
